Values joined by “and” are separate entries in the source; they are usually repeats but may differ in a detail not shown here. Equal entries are not always repeated.
Legend:
[1] = biological target: T1, cloned rat steroid 5α-reductase (Rattus norvegicus, UniProt P24008); assay: substrate specificity / inhibition of cloned rat liver steroid 5α-reductase expressed in Xenopus oocytes; conditions: for substrate for the cloned enzyme: 5 μM 14C-labeled steroid
T1 sequence (P24008 5-259): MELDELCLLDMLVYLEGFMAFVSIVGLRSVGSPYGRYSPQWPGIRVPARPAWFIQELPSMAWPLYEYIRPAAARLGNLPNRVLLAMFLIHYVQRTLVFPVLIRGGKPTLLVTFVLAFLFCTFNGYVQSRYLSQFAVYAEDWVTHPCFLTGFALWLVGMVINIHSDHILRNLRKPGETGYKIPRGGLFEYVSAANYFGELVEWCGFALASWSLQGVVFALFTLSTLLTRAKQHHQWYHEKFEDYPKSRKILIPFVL
Procedure: The various steroids and metabolites are identified on the left and right of the autoradiograms: P, progesterone ; 5αP, 5α-dihydroprogesterone; others are as indicated in the legend to FIG. 2. The amount of 5α-reduced metabolites for each substrate is indicated at the bottom of the figure and was determined by liquid scintillation counting after cutting out appropriate zones from the chromatograms.
Steroid 5α-Reductase Enzyme Assay. Stage 5 and 6 oocytes were surgically removed from female Xenopus laevis (NASCO, Fort Atkinson , Wis.) and collagenase-treated as described by Julius et al., (1988). Oocytes were injected with 50-100 nl of RNA (1 μg/μl) as described by Peacock et al. (Peacock et al., 1988). After injection the oocytes were incubated at 19° C. for 24 hours in modified Barth's saline solution (Peacock et al., 1988) containing 1 mg/ml bovine serum albumin (BSA) to allow expression of the injected RNA. Five to ten viable oocytes were then transferred to 1 ml of modified Barth's saline solution containing 5 μM ^14 C-labeled steroid (50 mCi/mmol, Du Pont-New England Nuclear), and incubated at 37° C. for 2-24 h. This temperature-jump protocol is based on the observation that expression of mRNA in Xenopus is maximal a 19° C., whereas rat steroid 5α-reductase expressed in Xenopus has a temperature optima of 37° C. After the 37° C. incubation, the oocytes were homogenized in the incubation medium and steroid was extracted with 10 ml of dichloromethane. The solvent was evaporated under air and the residue was dissolved in 0.1 ml of chloroform/methanol (2:1, v/v) and subjected to thin-layer chromatography using Siica Gel 60 thin-layer chromatography plates (E. merck, 5748-7, Darmstadt, West Germany). The chromatoplates were autoradiographed for 18 hours at -70° C. and the radioactive zones were cut out and subjected to liquid scintillation counting in Complete Counting Cocktail (Research Products International). The identities of the products were determined by comparison to the Rf values of known standards.
(§12) The oocytes were then incubated with different radiolabeled steroids for an additional 24 hours and the products formed were analyzed by thin-layer chromatography (TLC).

[2] = biological target: T2, human steroid 5α-reductase 1 (Homo sapiens, UniProt P18405); assay: steroid 5α-reductase activity/inhibition in vitro, homogenates of COS cells expressing human steroid 5α-reductase 1 cDNA (Table III); conditions: human enzyme
T2 sequence (P18405 1-259): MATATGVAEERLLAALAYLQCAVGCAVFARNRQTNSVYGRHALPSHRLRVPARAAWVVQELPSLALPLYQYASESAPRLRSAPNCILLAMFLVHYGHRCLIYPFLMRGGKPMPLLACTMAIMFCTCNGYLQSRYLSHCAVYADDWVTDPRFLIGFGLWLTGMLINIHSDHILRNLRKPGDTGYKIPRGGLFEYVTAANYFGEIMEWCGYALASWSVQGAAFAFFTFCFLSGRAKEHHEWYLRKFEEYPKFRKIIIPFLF
Excerpt: (§1) Expression Vector Construction. A rat steroid 5α-reductase cDNA corresponding to nucleotides 1-1962 (see Example 1) was ligated into the pCMV4 expression vector (Andersson et al., 1989b). A human cDNA corresponding to nucleotides 1 to 842 of FIG. 7 was initially ligated into pCMV4. […] After amplification, the product was ligated into pCMV4.
(§2) Expression of Steroid 5α-Reductase 1 cDNAs in COS Cells. Simian COS-M6 cells were transfected as described by Andersson et al. (1989b). The assay of steroid 5α-reductase activity in intact cells was carried out as described in Example 1 except that [^14 C]-labeled steroid dissolved in ethanol were added to the transfected cell medium and subsequent organic extractions were carried out with dichloromethane. TLC and liquid scintillation counting were performed as described in Example 1.
(§3) To assay steroid 5α-reductase activity in vitro, cells were harvested 48 hours after transfection, washed once with phosphate buffered saline and either frozen in liquid N2 or homogenized directly with a Polytron in 10 mM potassium phosphate (pH 7.4), 150 mM KCl and 1 mM EDTA, at a protein concentration of 2 mg/ml. A typical assay contained 10 to 50 μg of cell homogenate protein in 0.5 ml of 0.1M potassium phosphate buffer (pH 6.6, rat enzyme; pH 7.0, human enzyme). Steroids were added in 5 μl ethanol, and the reaction was initiated by the addition of NADPH to a final concentration of 2-5 mM. Incubations were carried out for 10 min at 37° C. and terminated by the addition of 5 ml dichloromethane. Organic execrations and thin-layer chromatography analysis were as described above.
(§4) The apparent Km and Vmax values in this system were determined in vitro with five different steroid substrates (Table III).
(§5) The apparent Ki values were then determined for 4-aza-steroid (4-MA and MK-906) inhibition of 5α-reductases expressed in COS cells. […] The data obtained were analyzed using Dixon plots to determine the type of inhibition and the apparent Ki value (Dixon et al., 1979).
(§6) COS call transfaction, cell homogonate preparation, and enzyme assay were
(§7) carried out as described in Materials and Methods. Each Km value
(§8) represents the average of at least two experiments carried out on
(§9) different days using cell lysates prepared from different transfections.

[3] = biological target: T3, rat steroid 5α-reductase (Rattus norvegicus, UniProt P24008); assay: steroid 5α-reductase activity/inhibition in vitro, homogenates of COS cells expressing rat cDNA (Table III); conditions: rat enzyme
T3 sequence (P24008 5-259): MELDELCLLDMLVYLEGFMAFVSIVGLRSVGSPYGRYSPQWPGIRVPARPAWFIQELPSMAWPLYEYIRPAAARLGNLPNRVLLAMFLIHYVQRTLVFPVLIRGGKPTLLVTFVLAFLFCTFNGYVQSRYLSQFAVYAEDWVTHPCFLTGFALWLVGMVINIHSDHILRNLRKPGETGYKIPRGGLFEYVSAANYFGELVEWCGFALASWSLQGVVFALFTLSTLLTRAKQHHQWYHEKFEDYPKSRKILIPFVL
Excerpt: as §1, §2, §3, §4, §5, §6, §7, §8, §9

[4] = test system: endogenous Xenopus enzyme (presumably a 17β-hydroxysteroid dehydrogenase); assay: conversion of steroids by endogenous Xenopus oocyte enzymes (control for nonspecific inhibition); type: cell-based, Xenopus laevis; conditions: 5 μM substrate, 5 μM inhibitor
Procedure: Steroid 5α-Reductase Enzyme Assay. Stage 5 and 6 oocytes were surgically removed from female Xenopus laevis (NASCO, Fort Atkinson , Wis.) and collagenase-treated as described by Julius et al., (1988). Oocytes were injected with 50-100 nl of RNA (1 μg/μl) as described by Peacock et al. (Peacock et al., 1988). After injection the oocytes were incubated at 19° C. for 24 hours in modified Barth's saline solution (Peacock et al., 1988) containing 1 mg/ml bovine serum albumin (BSA) to allow expression of the injected RNA. Five to ten viable oocytes were then transferred to 1 ml of modified Barth's saline solution containing 5 μM ^14 C-labeled steroid (50 mCi/mmol, Du Pont-New England Nuclear), and incubated at 37° C. for 2-24 h. […] After the 37° C. incubation, the oocytes were homogenized in the incubation medium and steroid was extracted with 10 ml of dichloromethane. The solvent was evaporated under air and the residue was dissolved in 0.1 ml of chloroform/methanol (2:1, v/v) and subjected to thin-layer chromatography using Siica Gel 60 thin-layer chromatography plates (E. merck, 5748-7, Darmstadt, West Germany). […] The identities of the products were determined by comparison to the Rf values of known standards.
as §12

[5] = biological target: T2, human steroid 5α-reductase 1; assay: steroid 5α-reductase assay in intact transfected COS cells, human type 1 cDNA; type: cell-based; set-up: Human 5α-reductase 1 is 259 residues long; expressed in transfected cells; host or cells: simian COS-M6 cells, pCMV4 vector; conditions: human steroid 5α-reductase 1 expressed in COS cells; 37° C., 2 hr
Excerpt: as §1, §2
(§10) COS cells were transiently transfected with expression vectors harboring the rat or human steroid 5α-reductase 1 cDNAs, or with the pCMV4 vector alone.
(§11) IC50 values for MK-906 and 4-MA inhibition of 5α-reductases expressed in COS cells were also determined. […] See Example 6 and FIG. 15, for further analysis of 4-aza-steroid inhibition.

[6] = test system: steroid 5α-reductase; conditions: Liang et al., 1985; cited from earlier work
[7] = biological target: T3, rat steroid 5α-reductase; assay: steroid 5α-reductase assay in intact transfected COS cells, rat cDNA; type: cell-based; set-up: the open reading frame would encode a hydrophobic protein of 255 amino acids; expressed in transfected cells; host or cells: simian COS-M6 cells, pCMV4 vector; conditions: rat enzyme expressed in COS cells; 37° C., 2 hr
Excerpt: as §1, §2, §10, §11

[8] = substrate: C[C@]12CCC(=O)C=C1CC[C@@H]1[C@@H]2CC[C@]2(C)C(=O)CC[C@@H]12; assay: cells, lysate or membranes named; conditions: 0.6 to 20 μM substrate, Lineweaver-Burk, 37.0 °C
Procedure: (§13) To assay steroid 5α-reductase activity in vitro, cells were harvested 48 hours after transfection, washed once with phosphate buffered saline and either frozen in liquid N2 or homogenized directly with a Polytron in 10 mM potassium phosphate (pH 7.4), 150 mM KCl and 1 mM EDTA, at a protein concentration of 2 mg/ml. A typical assay contained 10 to 50 μg of cell homogenate protein in 0.5 ml of 0.1M potassium phosphate buffer (pH 6.6, rat enzyme; pH 7.0, human enzyme). Steroids were added in 5 μl ethanol, and the reaction was initiated by the addition of NADPH to a final concentration of 2-5 mM. Incubations were carried out for 10 min at 37° C. and terminated by the addition of 5 ml dichloromethane. Organic execrations and thin-layer chromatography analysis were as described above. The formation of 5α-reduced steroid products was linear with respect to protein over a 10 to 50 μg range and with respect to incubation time over a 1 to 30 minute period.

[9] = substrate: CC(=O)[C@H]1CC[C@H]2[C@@H]3CCC4=CC(=O)CC[C@]4(C)[C@H]3CC[C@]12C; assay: cells, lysate or membranes named; conditions: 0.6 to 20 μM substrate, Lineweaver-Burk, 37.0 °C
Procedure: as §13

[10] = substrate: C[C@]12CC[C@H]3[C@@H](CCC4=CC(=O)CC[C@@]43C)[C@@H]1CC[C@@H]2O; assay: cells, lysate or membranes named; conditions: 0.6 to 20 μM substrate, Lineweaver-Burk, 37.0 °C
[11] = read-out: apparent Ki, two [14C]testosterone concentrations, Dixon plots
[12] = other: human enzyme in COS cell homogenate
[13] = other: rat enzyme in COS cell homogenate

Molecule: CC(=O)[C@H]1CC[C@H]2[C@@H]3CCC4=CC(=O)CC[C@]4(C)[C@H]3CC[C@]12C [Progesterone, progesterone]
- substrate for the cloned enzyme [1]: substrates for the cloned enzyme

Molecule: C[C@]12CCC(=O)C=C1CC[C@@H]1[C@@H]2[C@@H](O)C[C@@]2(C)[C@H]1CC[C@]2(O)C(=O)CO [Cortisol, cortisol]
- activity towards 11β-substituted steroids [2]: very low activities
- activity towards 11β-substituted steroids [3]: very low activities

Molecule: C[C@]12CC[C@H]3[C@@H](CCC4=CC(=O)CC[C@@]43C)[C@@H]1CC[C@@H]2O [Testosterone, testosterone]
- reduction of the testosterone substrate ([1]; intact rat steroid 5α-reductase RNA in oocytes (FIG. 6A)): 67%

Molecule: C[C@]12C[C@H](O)[C@H]3[C@@H](CCC4=CC(=O)CC[C@@]43C)[C@@H]1CC[C@@H]2C(=O)CO [Corticosterone, corticosterone]
- activity towards 11β-substituted steroids [2]: very low activities
- activity towards 11β-substituted steroids [3]: very low activities

Molecule: C[C@]12CCC(=O)C=C1CC[C@@H]1[C@@H]2CC[C@]2(C)C(=O)CC[C@@H]12 [Androstenedione, androstenedione]
- substrate for the cloned enzyme [1]: substrates for the cloned enzyme

Molecule: CCN(CC)C(=O)[C@H]1CC[C@H]2[C@@H]3CC[C@H]4N(C)C(=O)CC[C@]4(C)[C@H]3CC[C@]12C [4-MA, 17α-N,N-diethylcarbamoyl-4-methyl-4-aza-5α-androtane-3-one]
- apparent Ki (in words) [2]: low nanomolar range
- type of inhibition ([2]; Dixon plots): competitive
- Ki [2, 11]: 7 nM and 8 nM
- effect on conversion of dihydrotestosterone into other 5α-reduced metabolites by endogenous Xenopus enzymes [4]: no effect
- effect on conversion of testosterone into androstenedione by endogenous Xenopus enzyme [4]: not inhibited
- effect on reduction of androstenedione ([1]; 5 μM substrate, 5 μM inhibitor): efficiently blocked
- effect on reduction of progesterone ([1]; 5 μM substrate, 5 μM inhibitor): efficiently blocked
- effect on formation of 5α-reduced products from testosterone ([1]; equimolar testosterone and inhibitor (5 μM each)): substantial decrease
- apparent Ki (in words) [3]: low nanomolar range
- type of inhibition ([3]; Dixon plots): competitive
- Ki [3, 11]: 5 nM and 7 nM
- IC50 inhibition, relative potency of 4-MA versus MK-906 [5]: approximately ten-fold more potent than MK-906
- type of inhibition [6]: competitive inhibitors
- IC50 inhibition, relative potency of MK-906 and 4-MA [7]: equipotent

B1: human steroid 5α-reductase 1 (Homo sapiens) (protein)
chain: MATATGVAEERLLAALAYLQCAVGCAVFARNRQTNSVYGRHALPSHRLRVPARAAWVVQELPSLALPLYQYASESAPRLRSAPNCILLAMFLVHYGHRCLIYPFLMRGGKPMPLLACTMAIMFCTCNGYLQSRYLSHCAVYADDWVTDPRFLIGFGLWLTGMLINIHSDHILRNLRKPGDTGYKIPRGGLFEYVTAANYFGEIMEWCGYALASWSVQGAAFAFFTFCFLSGRAKEHHEWYLRKFEEYPKFRKIIIPFLF
- Km [8, 12]: 1.7 µM
- Km [9, 12]: 0.8 µM
- Km [10, 12]: 3.6 µM

B2: rat steroid 5α-reductase (Rattus norvegicus) (protein)
chain: MELDELCLLDMLVYLEGFMAFVSIVGLRSVGSPYGRYSPQWPGIRVPARPAWFIQELPSMAWPLYEYIRPAAARLGNLPNRVLLAMFLIHYVQRTLVFPVLIRGGKPTLLVTFVLAFLFCTFNGYVQSRYLSQFAVYAEDWVTHPCFLTGFALWLVGMVINIHSDHILRNLRKPGETGYKIPRGGLFEYVSAANYFGELVEWCGFALASWSLQGVVFALFTLSTLLTRAKQHHQWYHEKFEDYPKSRKILIPFVL
- Km [8, 13]: 2.8 µM
- Km [9, 13]: 0.5 µM
- Km [10, 13]: 2.5 µM

From patent publication US5679521A, “Steroid 5A-reductases” (priority 1995, dated 1997)
